From patent US7803788B2, “Prodrugs of phosphonate nucoleotide analogues” (Gilead Sciences, Inc., priority 2000, dated 2010)
Where two headings read alike, the source gives them in different places.

Columns and labels:
[1] = Excretion and tissue distribution of radiolabelled GS-7340 in dogs; details: dogs, oral 10 mg-eq. PMPA/kg
Procedure: Plasma and peripheral blood mononuclear cells (PBMCs) were obtained over the 24-hr period. Urine and feces were cage collected over 24 hr. At 24 h after the dose, the animals were sacrificed and tissues removed for analysis. Total radioactivity in tissues was determined by oxidation and liquid scintillation counting.

[2] = Stability / hydrolysis in MT-2 cell extract; type: in vitro ADME; details: for MT-2 extract hydrolysis product: 37° C., HEPES buffer pH 7.4
Procedure: (§1) The in vitro metabolism and stability of separated diastereomers were determined in PLCE, MT-2 extract and human plasma. A biological sample listed below, 80 μL, was transferred into a screw-capped centrifuge tube and incubated at 37° C. for 5 min. A solution containing 0.2 mg/mL of the test compound in a suitable buffer, 20 μL, was added to the biological sample and mixed. The reaction mixture, 20 μL, was immediately sampled and mixed with 60 μL of methanol containing 0.015 mg/mL of 2-hydroxymethylnaphthalene as an internal standard for HPLC analysis. The sample was taken as the time-zero sample. Then, at specific time points, the reaction mixture, 20 μL, was sampled and mixed with 60 μl of methanol containing the internal standard. The mixture thus obtained was centrifuged at 15,000 G for 5 min and the supernatant was analyzed with HPLC under the conditions described below.
(§2) The biological samples evaluated are as follows, • (1) PLCE (porcine liver carboxyesterase from Sigma, 160 u/mg protein, 21 mg protein/mL) diluted 20 fold with PBS (phosphated-buffered saline). • (2) MT-2 cell extract was prepared from MT-2 cells according to the published procedure [A. Pompon, I. Lefebvre, J.-L. Imbach, S. Kahn, and D. Farquhar, “Antiviral Chemistry & Chemotherapy”, 5:91-98 (1994)] except for using HEPES buffer described below as the medium. • (3) Human plasma (pooled normal human plasma from George King Biomedical Systems, Inc.)
In the study for MT-2 cell extracts, the test compound was dissolved in HEPES buffer. HEPES buffer contains 0.010 M HEPES, 0.05 M potassium chloride, 0.005 M magnesium chloride, and 0.005 M dl-dithiothreitol. pH 7.4 at 37° C.
(§3) The HPLC analysis was carried out under the following conditions.

[3] = PMPA metabolites in plasma, PBMCs and RBCs after 1 h incubation in human blood
Procedure: After 1 hour, plasma, red blood cells (RBCs) and peripheral blood mononuclear cells (PBMCs) were isolated and analyzed by HPLC with radiometric detection.
Met. Lower case “p” designates phosphorylation.

MT-2 cells = test: Cytotoxicity in MT-2 cells
[4] = Stability in human plasma; type: in vitro ADME; details: for Human Plasma Stability (HP) product / Human Plasma Stability (HP) t1/2: 37° C., TBS pH 7.5
Procedure: as §1, §2
In the study for human plasma, the test compound was dissolved in TBS. TBS (tris-buffered saline, Sigma) contains 0.05 M Tris, 0.0027 M potassium chloride, and 0.138 M sodium chloride. pH 7.5 at 37° C.
as §3

HIV-1 = test: In vitro anti-HIV-1 activity in MT-2 cells; type: cell-based; details: Table 5 (selected IC50 data from Table 4); read-out: HIV IC50
[5] = system: PLCE (porcine liver carboxyesterase); test: PLCE hydrolysis; type: in vitro ADME; details: 37° C., PBS pH 7.4
Procedure: as §1, §2
In the study for PLCE, the test compound was dissolved in PBS. PBS (phosphate-buffered saline, Sigma) contains 0.01 M phosphate, 0.0027 M potassium chloride, and 0.137 M sodium chloride. pH 7.4 at 37° C.
as §3

CC(C)OC(=O)[C@H](C)N[P@](=O)(CO[C@H](C)Cn1cnc2c(N)ncnc21)Oc1ccccc1 (single isomer, unassigned) [GS-7340]
% Dose ([1]; Abdominal fat): 0.00%
Conc. ([1]; Abdominal fat): 0.90 ug-eq/g
% Dose ([1]; Adrenal Gland): 0.00%
% Dose ([1]; Axillary Lymph Nodes): 0.01%
% Dose ([1]; Bile): 0.22%
% Dose ([1]; Bone Marrow): 0.00%
% Dose ([1]; Brain): 0.00%
Conc. ([1]; Brain): <LOD
% Dose ([1]; Cerebrospinal Fluid): 0.00%
Conc. ([1]; Cerebrospinal Fluid): 0.00 ug-eq/g
% Dose ([1]; Duodenum): 0.44%
% Dose ([1]; Eye (L + R)): 0.00%
Conc. ([1]; Eye (L + R)): 0.23 ug-eq/g
% Dose ([1]; Feces): 0.19%
% Dose ([1]; Femoral Bone): 0.00%
Conc. ([1]; Femoral Bone): 0.28 ug-eq/g
% Dose ([1]; Gall bladder): 0.04%
% Dose ([1]; Heart): 0.15%
% Dose ([1]; Ileum): 0.16%
% Dose ([1]; Iliac Lymph Nodes): 0.01%
% Dose ([1]; Inguinal Lymph Nodes): 0.00%
% Dose ([1]; Jejunum): 0.79%
% Dose ([1]; Lungs): 0.34%
% Dose ([1]; Mesenteric Lymph Nodes): 0.04%
% Dose ([1]; Pancreas): 0.01%
% Dose ([1]; Pituitary Gland): 0.00%
Conc. ([1]; Pituitary Gland): 1.80 ug-eq/g
% Dose ([1]; Prostate): 0.00%
% Dose ([1]; Salivary Gland (L + R)): 0.03%
% Dose ([1]; Skeletal Muscle): 0.01%
% Dose ([1]; Skin): 0.00%
Conc. ([1]; Skin): 0.95 ug-eq/g
% Dose ([1]; Spinal Cord): 0.00%
Conc. ([1]; Spinal Cord): 0.04 ug-eq/g
% Dose ([1]; Spleen): 0.17%
% Dose ([1]; Stomach): 0.26%
% Dose ([1]; Testes (L + R)): 0.02%
% Dose ([1]; Thyroid Gland): 0.00%
% Dose ([1]; Whole Blood): 0.16%
Conc. ([1]; Whole Blood): 0.20 ug-eq/g
Stability T ½ MT-2 Cell Extract ([2]; MT-2 cell extract): 0.472 h
Metabolites (% of Total Peak Area): GS 7340 (intact) ([3]; Plasma/FP): 84%
Total C-14 Recovered ([3]; Plasma/FP, 60 μg-eq): 43.0 μg-eq
Metabolites (% of Total Peak Area): GS 7340 (intact) ([3]; RBC/FP): 57%
CC50 (MT-2 cells; Table 4): ≥ 40000 nM
CC50 (MT-2 cells; read-out: Cytotoxicity CC50, MT-2 cells, Table 1): > 40000 nM
Stability T ½ Human Plasma ([4]; human plasma): 1.5 h

CCOC(=O)C(C)NP(=O)(COC(C)Cn1cnc2c(N)ncnc21)Oc1ccccc1 (single isomer, unassigned) [compound 1]
MT-2 extract hydrolysis product [2]: Met. X & PMPA
IC50 (HIV-1): 5 nM
PLCE hydrolysis product [5]: Met. X & PMPA
Human Plasma Stability (HP) product [4]: Met. Y
Human Plasma Stability (HP) t1/2 [4]: 2.47 h

CCOC(=O)C(CC)NP(=O)(COC(C)Cn1cnc2c(N)ncnc21)Oc1ccccc1 (single isomer, unassigned) [compound 6]
IC50 (HIV-1): 30 nM
PLCE hydrolysis product [5]: Met. X
Human Plasma Stability (HP) product [4]: Met. Y
Human Plasma Stability (HP) t1/2 [4]: 4.28 h

CCOC(=O)C(C)NP(=O)(COC(C)Cn1cnc2c(N)ncnc21)Oc1ccccc1 (single isomer, unassigned) [compound 2]
MT-2 extract hydrolysis product [2]: Met. X & PMPA
IC50 (HIV-1): 50 nM
PLCE hydrolysis product [5]: Met. X & PMPA
Human Plasma Stability (HP) product [4]: Met. Y
Human Plasma Stability (HP) t1/2 [4]: 8.25 h
